The text below walks through data of publication PMC8230474, “Synthesis of Novel Acyl Derivatives of 3-(4,5,6,7-Tetrabromo-1H-benzimidazol-1-yl)propan-1-ols—Intracellular TBBi-Based CK2 Inhibitors with Proapoptotic Properties” (International Journal of Molecular Sciences, 2021).

Where two headings read alike, the source gives them in different places.

Experiment [1] relates to MCF-7 cells. Briefly: MTT viability assay, MCF-7. In kind it is cell-based. The conditions noted are these: Homo sapiens, read-out: EC50 ± SD MCF-7. As to the method:
To test the anti-cancer effect of the TBBi derivatives, we treated the MCF-7 and MDA-MB-231 cells with the newly synthesized esters and previously reported compounds [34, 57] at the concentration range of 3.125 to 200 µM for 24 h, 48 h and 72 h. Additionally, the range of concentrations was extended by additional lower concentrations in MCF-7 for compound 4 with the minimum concentration of 0.195 µM. […] The EC50 values, describing the half maximal effective concentration of each tested compound, were calculated and are summarized in Table 2. […] We observed that the EC50 values increase in both cell lines with the elongation of fatty acids chain length in the tested compounds, thus strongly correlating with the decrease of their solubility in biological media as characterized by logS parameter (Table 2). The second reason for the decreased biological activity of the longer-chain aliphatic esters might be attributed to their greater resistance toward intracellular hydrolysis, which directly influences the slower release of the active form of the corresponding CK2 inhibitors. […] However, none of the tested compounds, except for compound 5, decreased the viability of both cell lines in a time-dependent manner (Figure 4).
MCF-7 and MDA-MB-231 were cultured in high-glucose Dulbecco’s modified Eagle medium (DMEM, Lonza, Basel, Switzerland) supplemented with 10% fetal bovine serum (FBS, EuroClone, Siziano, Italy)), 2 mM L-glutamine, and antibiotics (100 U/mL penicillin, 100 µg/mL streptomycin) (Sigma-Aldrich Chemical Company (St. Louis, MO, USA). Cells were grown in 75-cm^2 cell culture flasks (Sarstedt, Nümbrecht, Germany) in a humidified atmosphere of CO2/air (5%/95%) at 37 °C. All the experiments were performed in exponentially growing cultures. Stock solutions of the test compounds were prepared in DMSO and stored in −80 °C for a maximum of one month. For the cytotoxicity studies, stock solutions of the tested compounds were diluted 200-fold with the proper culture medium to obtain the final concentrations.
After incubation with the tested compounds, an MTT test was performed as described previously. Optical densities were measured at 570 nm using BioTek microplate reader (Winooski, VT, USA). All measurements were carried out in a minimum of three biological replicates.

In experiment [2] the test system is MDA-MB-231 cells. Briefly: Annexin V-FITC/PI flow cytometry, MDA-MB-231. The conditions noted are these: compound at its EC50. In kind it is cell-based, human. The procedure:
Similar to the results obtained for MCF-7 cells, compound 6b acted in MDA-MB-231 cells as an effective inducer of apoptosis with the amount of apoptotic cells equal to 31.5% and 49% after 24 h and 72 h of treatment, respectively.
MCF-7 cells were seeded in six-well plates at 1.5 × 10^5 cells/well. […] Then, the plates were incubated for 24 h or 72 h. After exposure to the examined compounds, the floating cells were collected, and monolayer cell culture was trypsinized. The cells were centrifugated at 200× g at 4 °C for 5 min, washed twice in cold phosphate-buffered saline (PBS), and subsequently suspended in binding buffer at 1 × 10^6 cells/mL. Subsequently, 100-μL aliquots of the cell suspension were labeled according to the kit manufacturer’s instructions. Briefly, annexin V-fluorescein isothiocyanate and propidium iodide (BD Biosciences, Pharmingen, San Diego, CA, USA) were added to the cell suspension, and the mixture was vortexed and then incubated for 15 min at RT in the dark. A cold binding buffer (900 μL) was then added and the cells were vortexed again and kept on ice. Flow cytometric measurements were performed within 1 h after labeling. Viable, necrotic, early, and late apoptotic cells were detected by flow cytometry using CyFlow Cube 8 (Sysmex, Norderstedt, Germany) flow cytometer.
For orientation: A flow cytometer gives signals particle by particle.

Experiment [3] concerns MCF-7 cells. Description: Cell cycle progression by flow cytometry, MCF-7. In kind it is cell-based, human. The conditions noted are these: MCF-7, 72 h, compound at its EC50.
Experiment [4] deals with human CK2 catalytic subunit (CK2α) (Homo sapiens, UniProt P68400). Briefly: Radiometric (P81 filter isotopic) kinase assay, CK2 catalytic subunit. The experiment is classed as biochemical. The conditions noted are these: read-out: Residual Activity of the Enzyme CK2α; for remaining activity at 5 µM: 5 µM compound; for remaining activity at 10 µM: 10 µM compound.
human CK2 catalytic subunit (CK2α), sequence (P68400 whole entry): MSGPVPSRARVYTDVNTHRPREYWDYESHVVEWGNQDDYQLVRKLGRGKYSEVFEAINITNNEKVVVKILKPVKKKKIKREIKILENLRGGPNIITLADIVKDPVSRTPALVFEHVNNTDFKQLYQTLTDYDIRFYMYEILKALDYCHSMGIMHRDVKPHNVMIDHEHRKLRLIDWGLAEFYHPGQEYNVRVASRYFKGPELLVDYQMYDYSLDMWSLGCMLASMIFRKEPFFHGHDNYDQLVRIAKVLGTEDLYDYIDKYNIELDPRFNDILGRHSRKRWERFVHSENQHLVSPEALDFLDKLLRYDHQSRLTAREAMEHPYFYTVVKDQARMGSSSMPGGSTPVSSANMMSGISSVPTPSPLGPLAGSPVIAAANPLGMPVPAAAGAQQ

A word on the EC50: it is the concentration at which the effect is half-maximal. For the molecule `CCCCCCCC(=O)OCCCn1cnc2c(Br)c(Br)c(Br)c(Br)c21` [Compound 3c, 3-(4,5,6,7-Tetrabromo-1H-benzimidazol-1-yl)propyl octanoate], the EC50 in experiment [1] (MCF7, 24 h) was 24.3 ± 0.25 µM. The EC50 in experiment [1] (MCF7, 48 h) was 21.1 ± 1.23 µM. Moreover, the EC50 in experiment [1] (MCF7, 72 h) is 29.9 ± 1.45 µM. Besides, in experiment [2] (MDA-MB-231, 24 h treatment), the apoptotic cells came out at 32.5%. Moreover, in experiment [2] (MDA-MB-231, 72 h treatment), the apoptotic cells is 50.5%. In addition, in experiment [3], the “cells in G1” value is reported as 59.4%, the “cells in G2M” value stood at 11.0% and the “cells in S” value was 29.6%. In experiment [4], the remaining activity at 5 µM amounted to 86.1 ± 4.2% and the remaining activity at 10 µM worked out at 79.2 ± 7.6%.
As to `CCCCCC(=O)OCCCn1c(C)nc2c(Br)c(Br)c(Br)c(Br)c21` [Compound 6b, (4,5,6,7-Tetrabromo-2-methyl-1H-benzimidazol-1-yl)propyl hexanoate], the EC50 in experiment [1] (MCF7, 24 h) amounted to 22.4 ± 1.12 µM; in experiment [1] (MCF7, 48 h), 18.59 ± 0.18 µM; in experiment [1] (MCF7, 72 h), 18.3 ± 2.86 µM. The apoptotic cells in experiment [2] (MDA-MB-231, 24 h treatment) is 31.5%; in experiment [2] (MDA-MB-231, 72 h treatment) it was 49%. Further, in experiment [3], the “cells in G1” value is recorded as 50.1%. Further, in experiment [3], the “cells in G2M” value turned out to be 19.9%. Moreover, the “cells in S” value in experiment [3] is reported as 30.0%. Also, the remaining activity at 5 µM in experiment [4] is 76.8 ± 1.9%. In addition, the remaining activity at 10 µM in experiment [4] stood at 74.3 ± 0.1%.
